Results taken from US9532961B2, “Method and kit for administering γ-glutamyl-D-cysteine for the prevention of reperfusion injury following ischemic stroke” (Rosalind Franklin University of Medicine and Science, priority 2005, dated 2017).

Experiments:
in vitro = in vitro ADME; details: rat, 6.25 mM
Procedure: Separate peaks representing the intact peptide and its metabolites are plotted as a function of time. The area under the curve for selected peaks may be measured and compared to appropriate standards to quantify the concentration of γ-Glu-Cys and its metabolites.
Loss of γ-Glu-Cys from the incubation medium, and the appearance of Cys and oxidized γ-Glu-Cys were quantified using HPLC to measure degradation, hydrolysis, and oxidation respectively. The ½-time for degradation of γ-Glu-Cys is 11.3±1.2 mins. Values are mean±SD. N=3 separate experiments.
Loss of γ-Glu-D-Cys from the incubation medium, and the appearance of D-Cys and oxidized γ-Glu-D-Cys were quantified using HPLC to measure degradation, hydrolysis, and oxidation respectively. Values are mean±SD. N=3 separate experiments.
Comparing the initial rates of degradation confirmed that γ-Glu-D-Cys is degraded more slowly (0.12±0.02 vs 0.22±0.02 mM/min, P=0.006). Values are mean±SD. N=3 separate experiments.
Values are mean±SD. N=3 separate experiments. * indicates significant difference at P<0.05.
As a measure of stability, the initial velocities of degradation for γ-Glu-Cys and γ-Glu-D-Cys were compared and found to be 0.22±0.03 vs. 0.12±0.02 (mM/min), respectively.
FIG. 11 is a graph showing the temporal comparison of degradation, oxidation and hydrolysis of γ-Glu-Cys. FIG. 12 is a graph showing the temporal comparison of degradation, oxidation, and hydrolysis of the analog γ-Glu-D-Cys. FIG. 13 is a graph comparing the degradation of γ-Glu-Cys and γ-Glu-D-Cys, as measured by the loss of intact peptide as a function of time of incubation. FIG. 14 is a graph comparing the hydrolysis of γ-Glu-Cys and γ-Glu-D-Cys, by appearance of cysteine and D-cysteine respectively, as a function of time. Mean±SE; * indicates significant difference at P<0.05. FIG. 15 is a graph comparing the oxidation of γ-Glu-Cys and γ-Glu-D-Cys, by appearance of oxidized γ-Glu-Cys and oxidized γ-Glu-D-Cys respectively, as a function of time. Mean±SE. * indicates P<0.05.

Human red blood cells = assay: Spontaneous hemolysis of human red blood cells (hemoglobin release at 540 nm); assay type: cell-based; details: 37° C.
Procedure: Human red blood cells (5%) were incubated in isotonic phosphate buffer, pH 7.4 for 190 minutes at 37° C. in the presence or absence of γ-Glu-Cys and γ-Glu-D-Cys, and spontaneous hemolysis was quantified by measuring hemoglobin release spectrophotometrically at 540 nm. […] Values are mean±SE for 4 observations.

[1] = Oxiselect Total Antioxidant Capacity Assay in rat serum (1-9%) in Tris Buffer; details: 0.0625, 0.125, 0.3125 and 0.625 mM, averaged
Procedure: (§1) FIGS. 16a and 16b indicate that the antioxidant capacities of γ-Glu-Cys and γ-Glu-D-Cys are the same using an in vitro assay. Antioxidant capacities were measured with the Oxiselect Total Antioxidant Capacity Assay Kit, using uric acid as a standard. […] Values are mean±SE. N=3 separate experiments for the 0.78, 1.56, and 3.13 mM concentrations. N=2 separate experiments for the 0.39 mM concentration. *P=0.047.

[2] = Oxiselect Total Antioxidant Capacity Assay in human plasma (90-99%)
Procedure: as §1

N[C@@H](CCC(=O)N[C@H](CS)C(=O)O)C(=O)O [γ-Glu-D-Cys, γ-glutamyl-D-cysteine]
initial rate (velocity) of degradation (in vitro): 0.12 ± 0.02 mM/min
difference in cytoprotective effect, γ-Glu-Cys vs γ-Glu-D-Cys (Human red blood cells; 1 mM each, 190 minutes): no significant difference in their cytoprotective effect
spontaneous hemolysis (Human red blood cells; 1 mM, 5% red blood cells, phosphate buffer pH 7.4, 190 minutes): significantly inhibit spontaneous hemolysis
toxicity (increase of hemolysis) (Human red blood cells; 1 mM, 190 minutes): not toxic under the experimental conditions
antioxidant capacity (uric acid equivalents), γ-Glu-Cys vs γ-Glu-D-Cys [1]: not to be significantly different from each other
antioxidant capacity, γ-Glu-Cys vs γ-Glu-D-Cys ([2]; 0.39 mM in human plasma (90-99%), N=2, P=0.047): marginal difference
antioxidant capacity, γ-Glu-Cys vs γ-Glu-D-Cys ([2]; 0.78, 1.56, and 3.13 mM in human plasma (90-99%), N=3): a significant difference was not detected
